Measurements reported in US6642434B1, “Transgenic plants with γ-tocopherol methyltransferase” (University of Community College System of Nevada, priority 1997, dated 2003).

Legend:
[1] = molecular target: T1, Arabidopsis γ-tocopherol methyltransferase (165H5T7) (Arabidopsis thaliana, UniProt Q9ZSK1); assay: γ-TMT assay with Arabidopsis 165H5T7 protein expressed in E. coli; format: biochemical; details: for use as substrate (methylation) by Arabidopsis γ-TMT: 5 mM substrate, pH 8.5, 14C-methyl-SAM, 30 minutes room temperature
T1 construct: made in house; host or cells: E. coli BL21(DE3), pET3D vector; Triton X-100 supernatant of the lysate
T1 sequence (Q9ZSK1 51-348): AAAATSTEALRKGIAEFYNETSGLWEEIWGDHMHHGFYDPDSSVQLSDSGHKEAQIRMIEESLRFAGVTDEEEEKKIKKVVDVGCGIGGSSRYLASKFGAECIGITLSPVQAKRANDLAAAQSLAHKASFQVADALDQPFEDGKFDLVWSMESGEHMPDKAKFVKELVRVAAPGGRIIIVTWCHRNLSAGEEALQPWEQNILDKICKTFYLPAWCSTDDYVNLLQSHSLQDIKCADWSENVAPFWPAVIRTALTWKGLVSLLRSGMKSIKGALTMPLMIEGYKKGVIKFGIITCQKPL
Experimental: (§1) The p011698-1 and p011898-1 constructs were used to transform the E. coli T7 expression host BL21(DE3). To generate protein for γ-TMT assays, one liter cultures of transformed host cells containing one of the constructs were grown in Luria broth containing 100 mg/liter ampicillin. Each culture was started at an optical density at 600 nm (OD600) of 0.1 and incubated in a shaking incubator at 28° C. until the culture reached an OD600 of 0.6, at which time isopropyl-, β-D-thiogalactopyranoside (IPTG) was added to each culture to obtain a final concentration of 0.4 mM IPTG. Each culture was incubated for an additional 3 hours at 28° C. and the cells were harvested by centrifugation at 8,000 g. The cell pellets were then resupended in 10 ml of 10 mM HEPES (pH 7.8), 5 mM DTT, 0.24 M sorbitol, 1 mM PMSF. The cells were lysed by sonication with a micro-tip sonicator using four 10-second pulses. Triton×100 was added to each homogenate to a final concentration of 1%. The homogenates were incubated on ice for 30 minutes, and subjected to centrifugation at 30,000 g for 30 minutes at 4° C. The supernatants of these extracts were assayed for γ-tocopherol methyltransferase activity as follows.
(§2) The γ-TMT assays were performed in 250 μl volumes containing 50 mM Tris (pH 7.5 for the Synechocystis and pH 8.5 for the Arabidopsis enzyme), 5 mM DTT, 5 mM γ- or δ-tocopherol, and 0.025 μCi (55 μCi/mmole) (^14C-methyl)-S-adenosylmethionine. Reaction mixtures were incubated at room temperature for 30 minutes. The reactions were stopped by adding of 1 ml of 2:1 (v:v) CHCl3: methanol containing 1 mg/ml butylated hydroxytolulene (BHT) and 250 μl of 0.9% NaCl in water, and vortexing. The samples were centrifuged to separate the phases. The CHCl3 (lower) phase was transferred to a fresh tube containing […] of α-tocopherol and the CHCl3 was then removed under vacuum in a speed-vac. The dried lipid fraction was resuspended in 50 μl ethyl acetate containing 1 mg/ml BHT. The lipid extracts were fractionated on silica 60 TLC plates in dichloromethane. Tocopherols were then identified by co-migration with authentic tocopherol standards after staining the plate with Emmerie-Engels solution (0.1% FeCl3, 0.25% 2,2′-dipyridyl in ethanol). The band corresponding to α-tocopherol was scraped from the TLC plate and the amount of radioactive material present was determined by scintillation counting.
(§3) The Synechocystis and Arabidopsis γ-tocopherol methyltransferases were tested for activity using several different methyl-substituted tocopherol substrates. […] The two enzymes were unable to use tocol, 5,7-diemethyltocol, β-tocopherol, and γ-tocotrienol as substrates. […] The Synechocystis and Arabidopsis γ-TMTs appear to require substrates with a methyl-group present on the 8 position of the chromanol ring and a fully saturated prenyl-tail for activity.

[2] = test system: Synechocystis γ-tocopherol methyltransferase (SLR0089); assay: γ-TMT assay with Synechocystis SLR0089 protein expressed in E. coli; format: biochemical, Synechocystis PCC6803; details: for use as substrate (methylation) by Synechocystis γ-TMT: 5 mM substrate, pH 7.5, 14C-methyl-SAM, 30 minutes room temperature
Experimental: as §1, §2, §3

Row | Compound | use as substrate (methylation) by Arabidopsis γ-TMT [1] | use as substrate (methylation) by Synechocystis γ-TMT [2] | relative activity of Arabidopsis γ-TMT toward γ- and δ-tocopherol [1] | relative activity of Synechocystis γ-TMT toward γ- and δ-tocopherol [2]
1 | Cc1cc2c(c(C)c1O)CCC(C)(CCCC(C)CCCC(C)CCCC(C)C)O2 (stereo not shown) [5,7-diemethyltocol] | unable to use | unable to use | – | –
2 | CC(C)CCCC(C)CCCC(C)CCCC1(C)CCc2cc(O)ccc2O1 (stereo not shown) [tocol] | unable to use | unable to use | – | –
3 | Cc1cc(O)c(C)c2c1O[C@](C)(CCC[C@H](C)CCC[C@H](C)CCCC(C)C)CC2 [β-tocopherol] | unable to use | unable to use | – | –
4 | Cc1c(O)cc2c(c1C)O[C@](C)(CCC[C@H](C)CCC[C@H](C)CCCC(C)C)CC2 [γ-tocopherol] | able to convert γ-tocopherol to α-tocopherol | able to convert γ-tocopherol to α-tocopherol | greater activity with γ-tocopherol as the substrate than with the δ-tocopherol substrate | equally active toward γ-tocopherol and δ-tocopherol
5 | CC(C)=CCC/C(C)=C/CC/C(C)=C/CC[C@]1(C)CCc2cc(O)c(C)c(C)c2O1 [γ-tocotrienol] | unable to use | unable to use | – | –
6 | Cc1cc(O)cc2c1O[C@](C)(CCC[C@H](C)CCC[C@H](C)CCCC(C)C)CC2 [δ-tocopherol] | able to specifically convert δ-tocopherol to β-tocopherol | able to specifically convert δ-tocopherol to β-tocopherol | greater activity with γ-tocopherol as the substrate than with the δ-tocopherol substrate | equally active toward γ-tocopherol and δ-tocopherol
